Measured values taken from patent publication US20230242585A1, “IMMUNOMODULATORS” (Bristol-Myers Squibb Company, priority 2020, published 2023).
Starred links: 1 amine or outer side, 2 acyl side, 3 side chain; linkers in the order of their positions; H or OH if unused. Positions of bridges follow the written chain, without caps; N, C: chain ends. Non-standard residues stand in square brackets, D forms with d. Residues, ends and D or L forms follow the SMILES beside them. X27 = O=C([C@H](CNC[C@H](O)[C@@H](O)[C@H](O[C@@H]1O[C@H](CO)[C@H](O)[C@H](O)[C@H]1O)[C@H](O)CO)N[*:1])[*:2]; X54 = O=C([C@H](CCNC[C@@H](O)C(O)[C@H](O[C@@H]1OC(CO)[C@@H](O)C(O)C1O)C(O)CO)N[*:1])[*:2]; X42 = O=C([C@H](CNC[C@@H](O)C(O)[C@H](O[C@@H]1OC(CO)[C@@H](O)C(O)C1O)C(O)CO)N[*:1])[*:2]; Trp(1-CH2COOH) = N[C@@H](Cc1cn(CC(=O)O)c2ccccc12)C(=O)O; X21 = O=C([C@H](CCNCc1c2ccccc2nc2ccccc12)N[*:1])[*:2]; X57 = COc1cc2cccc(OC)c2cc1CNCC[C@H](N[*:1])C(=O)[*:2]; X10 = O=C([C@H](CNCc1c2ccccc2nc2ccccc12)N[*:1])[*:2]; X36 = COc1cc2cccc(OC)c2cc1CNC[C@H](N[*:1])C(=O)[*:2]; X37 = O=C([C@H](CNCC[C@@H](O)C(O)CO)N[*:1])[*:2]; X38 = O=C([C@H](CCNCC[C@H](O)C(O)CO)N[*:1])[*:2]; X61 = O=C([C@H](CCNCc1ccccc1O)N[*:1])[*:2]; X60 = O=C([C@H](CNCc1ccccc1O)N[*:1])[*:2]; Hyp = O=C(O)[C@@H]1C[C@@H](O)CN1; NMeNle = CCCC[C@H](NC)C(=O)O; NMeA = CN[C@@H](C)C(=O)O; Dab = NCC[C@H](N)C(=O)O

molecular target: T1, PD-1/PD-L1 (Homo sapiens, UniProt Q9NZQ7); experiment: PD-1/PD-L1 Homogenous Time-Resolved Fluorescence (HTRF) binding assay; conditions: PD-L1-His 10 nM, PD-1-Ig 20 nM
T1 construct: TVMV protease site (linker) (C); made in house; host or cells: HEK293T cells
Description: The ability of the compounds of formula (I) to bind to PD-L1 was investigated using a PD-1/PD-L1 Homogenous Time-Resolved Fluorescence (HTRF) binding assay.
The interaction of PD-1 and PD-L1 can be assessed using soluble, purified preparations of the extracellular domains of the two proteins. The PD-1 and PD-L1 protein extracellular domains were expressed as fusion proteins with detection tags, for PD-1, the tag was the Fc portion of Immunoglobulin (PD-1-Ig) and for PD-L1 it was the 6 histidine motif (PD-L1-His). All binding studies were performed in an HTRF assay buffer consisting of dPBS supplemented with 0.1% […] bovine serum albumin and 0.05% (v/v) Tween-20. For the h/PD-L1-His binding assay, inhibitors were pre-incubated with PD-L1-His (10 nM final) for 15 m in 4 µl of assay buffer, followed by addition of PD-1-Ig (20 nM final) in 1 µl of assay buffer and further incubation for 15 m. HTRF detection was achieved using europium crypate-labeled anti-Ig (1 nM final) and allophycocyanin (APC) labeled anti-His (20 nM final). Antibodies were diluted in HTRF detection buffer and 5 µl was dispensed on top of the binding reaction. The reaction mixture was allowed to equilibrate for 30 minutes and the resulting signal (665 nm/620 nm ratio) was obtained using an EnVision fluorometer. Additional binding assays were established between the human proteins PD-1-Ig/PD-L2-His (20 & 5 nM, respectively) and CD80-His/PD-L1-Ig (100 & 10 nM, respectively).
Recombinant Proteins: Human PD-1 (25-167) with a C-terminal human Fc domain of immunoglobulin G (Ig) epitope tag [hPD-1 (25-167)-3S-IG] and human PD-L1 (18-239) with a C-terminal His epitope tag [hPD-L1(18-239)-TVMV-His] were expressed in HEK293T cells and purified sequentially by ProteinA affinity chromatography and size exclusion chromatography. Human PD-L2-His and CD80-His was obtained through commercial sources.
Table 1 lists the IC50 values for representative examples of this disclosure measured in the PD-1/PD-L1 Homogenous Time-Resolved Fluorescence (HTRF) binding assay.

T1 sequence (Q9NZQ7 18-239): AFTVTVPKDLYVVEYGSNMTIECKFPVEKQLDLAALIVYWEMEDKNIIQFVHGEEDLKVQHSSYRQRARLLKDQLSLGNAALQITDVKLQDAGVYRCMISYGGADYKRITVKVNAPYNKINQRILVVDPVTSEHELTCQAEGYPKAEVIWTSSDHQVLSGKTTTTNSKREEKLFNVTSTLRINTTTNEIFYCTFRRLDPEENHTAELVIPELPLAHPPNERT

Question: For `CCCC[C@H]1C(=O)N(C)[C@@H](CCCC)C(=O)N[C@@H](CC(C)C)C(=O)N[C@H](C(=O)NCC(N)=O)CSCC(=O)N[C@@H](Cc2ccc(O)cc2)C(=O)N(C)[C@@H](C)C(=O)N[C@@H](CC(N)=O)C(=O)N2CCC[C@H]2C(=O)N[C@@H](CNCc2ccccc2O)C(=O)N[C@@H](CC(C)C)C(=O)N2C[C@H](O)C[C@H]2C(=O)N[C@@H](Cc2c[nH]c3ccccc23)C(=O)N[C@@H](CCNCc2ccccc2O)C(=O)N[C@@H](Cc2cn(CC(=O)O)c3ccccc23)C(=O)N1C` [Example 1021] ({CH2CO}-Y[NMeA]NP[X60]L[Hyp]W[X61][Trp(1-CH2COOH)][NMeNle][NMeNle]LCG-NH2; thioether N-14), which IC50 is on record?
Answer: 7.6 nM

Question: For `CCCC[C@H]1C(=O)N(C)[C@@H](CCCC)C(=O)N[C@@H](CC(C)C)C(=O)N[C@H](C(=O)NCC(N)=O)CSCC(=O)N[C@@H](Cc2ccc(O)cc2)C(=O)N(C)[C@@H](C)C(=O)N[C@@H](CC(N)=O)C(=O)N2CCC[C@H]2C(=O)N[C@@H](CNCC[C@@H](O)C(O)CO)C(=O)N[C@@H](CC(C)C)C(=O)N2C[C@H](O)C[C@H]2C(=O)N[C@@H](Cc2c[nH]c3ccccc23)C(=O)N[C@@H](CCNCC[C@H](O)C(O)CO)C(=O)N[C@@H](Cc2cn(CC(=O)O)c3ccccc23)C(=O)N1C` (stereo partly drawn) [Example 2038] ({CH2CO}-Y[NMeA]NP[X37]L[Hyp]W[X38][Trp(1-CH2COOH)][NMeNle][NMeNle]LCG-NH2; thioether N-14), which IC50 is on record?
Answer: 6.7 nM

Question: Which IC50 does the source give for `CCCC[C@H]1C(=O)N(C)[C@@H](CCCC)C(=O)N[C@@H](CC(C)C)C(=O)N[C@H](C(=O)NCC(N)=O)CSCC(=O)N[C@@H](Cc2ccc(O)cc2)C(=O)N(C)[C@@H](C)C(=O)N[C@@H](CC(N)=O)C(=O)N2CCC[C@H]2C(=O)N[C@@H](CNC[C@H](O)[C@@H](O)[C@H](O[C@@H]2O[C@H](CO)[C@H](O)[C@H](O)[C@H]2O)[C@H](O)CO)C(=O)N[C@@H](CC(C)C)C(=O)N2C[C@H](O)C[C@H]2C(=O)N[C@@H](Cc2c[nH]c3ccccc23)C(=O)N[C@@H](CCN)C(=O)N[C@@H](Cc2cn(CC(=O)O)c3ccccc23)C(=O)N1C` [Example 2013] ({CH2CO}-Y[NMeA]NP[X27]L[Hyp]W[Dab][Trp(1-CH2COOH)][NMeNle][NMeNle]LCG-NH2; thioether N-14) here?
Answer: 9.7 nM

Question: Which IC50 does the source give for `CCCC[C@H]1C(=O)N(C)[C@@H](CCCC)C(=O)N[C@@H](CC(C)C)C(=O)N[C@H](C(=O)NCC(N)=O)CSCC(=O)N[C@@H](Cc2ccc(O)cc2)C(=O)N(C)[C@@H](C)C(=O)N[C@@H](CC(N)=O)C(=O)N2CCC[C@H]2C(=O)N[C@@H](CNCc2cc3c(OC)cccc3cc2OC)C(=O)N[C@@H](CC(C)C)C(=O)N2C[C@H](O)C[C@H]2C(=O)N[C@@H](Cc2c[nH]c3ccccc23)C(=O)N[C@@H](CCNCc2cc3c(OC)cccc3cc2OC)C(=O)N[C@@H](Cc2cn(CC(=O)O)c3ccccc23)C(=O)N1C` [Example 1011] ({CH2CO}-Y[NMeA]NP[X36]L[Hyp]W[X57][Trp(1-CH2COOH)][NMeNle][NMeNle]LCG-NH2; thioether N-14) here?
Answer: 7 nM

Question: For `CCCC[C@H]1C(=O)N(C)[C@@H](CCCC)C(=O)N[C@@H](CC(C)C)C(=O)N[C@H](C(=O)NCC(N)=O)CSCC(=O)N[C@@H](Cc2ccc(O)cc2)C(=O)N(C)[C@@H](C)C(=O)N[C@@H](CC(N)=O)C(=O)N2CCC[C@H]2C(=O)N[C@@H](CNC[C@@H](O)C(O)[C@H](O[C@@H]2OC(CO)[C@@H](O)C(O)C2O)C(O)CO)C(=O)N[C@@H](CC(C)C)C(=O)N2C[C@H](O)C[C@H]2C(=O)N[C@@H](Cc2c[nH]c3ccccc23)C(=O)N[C@@H](CCNC[C@@H](O)C(O)[C@H](O[C@@H]2OC(CO)[C@@H](O)C(O)C2O)C(O)CO)C(=O)N[C@@H](Cc2cn(CC(=O)O)c3ccccc23)C(=O)N1C` (stereo partly drawn) [Example 2040] ({CH2CO}-Y[NMeA]NP[X42]L[Hyp]W[X54][Trp(1-CH2COOH)][NMeNle][NMeNle]LCG-NH2; thioether N-14), which IC50 is on record?
Answer: 6.3 nM

Question: Which IC50 does the source give for `CCCC[C@H]1C(=O)N(C)[C@@H](CCCC)C(=O)N[C@@H](CC(C)C)C(=O)N[C@H](C(=O)NCC(N)=O)CSCC(=O)N[C@@H](Cc2ccc(O)cc2)C(=O)N(C)[C@@H](C)C(=O)N[C@@H](CC(N)=O)C(=O)N2CCC[C@H]2C(=O)N[C@@H](CNCc2c3ccccc3nc3ccccc23)C(=O)N[C@@H](CC(C)C)C(=O)N2C[C@H](O)C[C@H]2C(=O)N[C@@H](Cc2c[nH]c3ccccc23)C(=O)N[C@@H](CCNCc2c3ccccc3nc3ccccc23)C(=O)N[C@@H](Cc2cn(CC(=O)O)c3ccccc23)C(=O)N1C` [Example 1020] ({CH2CO}-Y[NMeA]NP[X10]L[Hyp]W[X21][Trp(1-CH2COOH)][NMeNle][NMeNle]LCG-NH2; thioether N-14) here?
Answer: 9.9 nM
